The source of these data is the COVID Moonshot data (paper PMC11187573), “Identification of SARS-CoV-2 Mpro inhibitors through deep reinforcement learning for de novo drug design and computational chemistry approaches” (RSC Medicinal Chemistry, 2024).

The target in data set [1] is SARS-CoV-2 Main Protease (SARS-CoV-2) (UniProt P0DTD1).
Data set [2] concerns the target trypsin (UniProt P07477).
Data set [3] has as its target SARS-CoV-2 Main Protease (SARS-CoV-2) (UniProt P0DTD1). The source holds these as a separate data set.

Sequence of trypsin (P07477 whole entry, looked up): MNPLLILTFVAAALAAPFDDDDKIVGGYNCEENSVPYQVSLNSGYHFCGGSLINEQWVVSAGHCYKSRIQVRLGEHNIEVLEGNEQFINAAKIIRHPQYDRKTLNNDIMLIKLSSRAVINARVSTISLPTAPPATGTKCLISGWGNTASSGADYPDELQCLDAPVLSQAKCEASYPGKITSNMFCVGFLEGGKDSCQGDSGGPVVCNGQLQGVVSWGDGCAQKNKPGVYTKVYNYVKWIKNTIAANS

As usually defined, the inhibition is the relative decrease from the control value, in per cent. What is called IC50 is the concentration that inhibits the measured activity by half. A low value points to greater potency in that assay. Molecule `O=C(CCl)N1CCCc2cc(NCc3ccc(F)cc3Cl)ccc21` displayed a relative solubility at 20 uM of 0.81 and a relative solubility at 100 uM of 0.39. In data set [1] (20.0 µM), the inhibition is 47.9%. The molecule further had an IC50 in data set [2] of 51.8 µM. In addition, the inhibition in data set [3] (20.0 µM) was 25.3%. In data set [3] (50.0 µM), the inhibition came out at 52.5%.

`C=CC(=O)N(c1ccc(C2(C)CC2)cc1)C(C(=O)Nc1ccc(Br)cc1)c1cccnc1` (stereo not given) had a relative solubility at 20 uM of 1 and a relative solubility at 100 uM of 1.01. The molecule further gave an IC50 in data set [1] of 19.4 µM. Also, in data set [1] (20.0 µM), the inhibition amounted to 2.51%. The inhibition in data set [1] (50.0 µM) was found to be 67.8%. The molecule further registered an IC50 in data set [2] of 58.2 µM. The inhibition in data set [3] (50.0 µM) amounted to 47.1%.

For `C=CC(=O)N(c1ccc(C(C)(C)C)cc1)C(C(=O)Nc1ccc2c(c1)OCO2)c1cccnc1` (stereo not given), the IC50 in data set [1] turned out to be 62.1 µM; in data set [2], 72.5 µM. The inhibition was 100% in data set [1] (50.0 µM), 41.1% in data set [3] (20.0 µM) and 60.4% in data set [3] (50.0 µM).

`COc1cc(CN2CCN(C(=O)CCl)CC2)c2ccccc2c1` gave a relative solubility at 20 uM of 1 and a relative solubility at 100 uM of 0.95. In data set [1], this molecule showed an IC50 of 1.62 µM. In addition, in data set [1] (50.0 µM), the inhibition came out at 100%. The same molecule returned an IC50 in data set [2] of 81.7 µM. Also, the inhibition in data set [3] (20.0 µM) is 82.8%. For the same molecule, in data set [3] (50.0 µM), the inhibition came out at 90.9%.

Turning to `CCN(C)CC1CCN(c2ccc(S(N)(=O)=O)cc2)CC1`, the relative solubility at 20 uM came to 1 and the relative solubility at 100 uM was determined as 0.98. Besides, the inhibition in data set [1] (20.0 µM) worked out at 0%. In addition, the inhibition in data set [1] (50.0 µM) turned out to be 0%. Moreover, in data set [3] (20.0 µM), the inhibition came to 3.39%. Moreover, the inhibition in data set [3] (50.0 µM) turned out to be 6.02%.

`O=C(c1cc(=O)[nH]c2ccccc12)N1CCN(c2ccccc2F)CC1` displayed a relative solubility at 20 uM of 0.98 and a relative solubility at 100 uM of 0.99. Besides, the inhibition in data set [1] (50.0 µM) was found to be 46.4%. The inhibition in data set [3] (20.0 µM) was 50.7%. Besides, the inhibition in data set [3] (50.0 µM) was found to be 75.6%.

Molecule `O=C(CCl)N1CCN(Cc2cc(Cl)ccc2CNC(=O)N2CCOCC2)CC1` returned a relative solubility at 20 uM of 0.98 and a relative solubility at 100 uM of 0.94. Moreover, the IC50 in data set [1] was 5.55 µM. In addition, the inhibition in data set [1] (50.0 µM) stood at 93.3%. This molecule gave a 50% inhibitory concentration (IC50) in data set [2] of 15.8 µM. Besides, the inhibition in data set [3] (20.0 µM) was 77.2%. Also, the inhibition in data set [3] (50.0 µM) came to 79%.

Take `COC1CCN(c2ccc(S(N)(=O)=O)cc2)CC1`: the relative solubility at 20 uM worked out at 1 and the relative solubility at 100 uM worked out at 1. For the same molecule, the inhibition in data set [1] (20.0 µM) is 29.7%. Further, the inhibition in data set [1] (50.0 µM) turned out to be 35.4%. In addition, the inhibition in data set [3] (20.0 µM) was 2.98%. Further, the inhibition in data set [3] (50.0 µM) stood at 6.82%.

`Cc1ccncc1NC(=O)CC(C)(C)NC(=O)c1cccc2[nH]ccc12` gave a relative solubility at 20 uM of 0.99 and a relative solubility at 100 uM of 0.99. Also, the inhibition in data set [1] (20.0 µM) was 0%. The inhibition in data set [1] (50.0 µM) is 0%. Besides, the inhibition in data set [3] (50.0 µM) is -10.4%.

`CCOc1ccccc1/C=C1/C(=O)NC(=O)c2ccccc21` returned a relative solubility at 20 uM of 0.97 and a relative solubility at 100 uM of 0.68. The inhibition in data set [1] (50.0 µM) is 39.6%. Moreover, the inhibition in data set [3] (20.0 µM) was -36.4%. For the same molecule, the inhibition in data set [3] (50.0 µM) worked out at 4.82%.

Molecule `CCCNC(=O)C(C)NC(=O)N(C)Cc1csc(C)n1` (stereo not given) displayed a relative solubility at 20 uM of 1 and a relative solubility at 100 uM of 1. Besides, the inhibition in data set [1] (20.0 µM) was found to be 0%. Further, in data set [3] (20.0 µM), the inhibition was 0.814%. The inhibition in data set [3] (50.0 µM) is -2.74%.

Molecule `COCCc1ccc(Cl)cc1CN1CCN(C(=O)CCl)CC1` yielded a relative solubility at 20 uM of 1 and a relative solubility at 100 uM of 0.99. Besides, the IC50 in data set [1] was found to be 2.42 µM. The inhibition in data set [1] (50.0 µM) worked out at 100%. Besides, the inhibition in data set [3] (20.0 µM) amounted to 96.1%. The inhibition in data set [3] (50.0 µM) was 95.1%.
